Columns and labels:
[1] = In vitro dissociation in blood plasma of rat; type: in vitro ADME, SD rats; conditions: fresh SD rat plasma, 37° C.; for Sampling time/Dissociation percent (%) 2 min: 2 min incubation; for Sampling time/Dissociation percent (%) 5 min: 5 min incubation; for Sampling time/Dissociation percent (%) 10 min: 10 min incubation
Procedure: The obtained water soluble taxane derivatives of the following formulae were formulated as 0.2 mg/ml aqueous solutions. […] After 2 min, 5 min and 10 min of incubation, 0.2 ml of solutions were respectively taken from each of the samples, and added to acetonitrile (0.4 ml) cooled to −20° C. for precipitation of protein.

[2] = test system: human prostate cancer PC-3; assay: Inhibitory activity of cabazitaxel derivatives on subcutaneously xenografted tumor PC-3 in nude mice; conditions: D0 IV; for Weight change (%) D6: nude mice; for T/C (%) D20 / Tumor volume (mm^3) (D20) / Tumor inhibitory percent (%) D20 / Tumor volume (mm^3) (D0): PC-3 xenograft in nude mice; for Tumor inhibitory percent (%) D20: P = 0.000 vs control; for Tumor volume (mm^3) (D0): baseline at grouping (D0)
Description: Purpose: to evaluate and compare the inhibitory activity of the water soluble cabazitaxel derivatives and cabazitaxel on subcutaneously xenografted tumor of human prostate cancer PC-3 in nude mice.
Human prostate cancer PC-3 cells were subcutaneously inoculated into nude mice. After the tumor volume reached 100-150 mm^3, the animals were randomly divided into several groups, and administered with the water soluble cabazitaxel derivatives of the following formula and cabazitaxel, respectively once on the same day (D0). The tumor volume was measured 2-3 times per week, the animals were weighed and the data were recorded until day 20 (D20) after grouping.
(§1) The tumor volume (V) was calculated according to the equation: V=½×a×b^2, wherein a and b represent the length and the width, respectively.
T/C (%)=(T−T0)/(C−C0)×100, wherein T and C represent the tumor volume at the end of the experiment; and T0 and C0 represent the tumor volume at the beginning of the experiment.

[3] = In vitro dissociation in blood plasma of rabbit; type: in vitro ADME, New Zealand white rabbits; conditions: fresh New Zealand white rabbit plasma, 37° C.
Procedure: The obtained water soluble taxane derivatives of the following formulae were formulated as 0.2 mg/ml aqueous solutions. […]

[4] = test system: human non-small cell lung cancer NCI-H446; assay: Inhibitory activity of larotaxel and tesetaxel derivatives on subcutaneously xenografted tumor NCI-H446 in nude mice; conditions: 12 mg/kg, D0 IV; for T/C (%) D20 / Tumor volume (mm^3) (D20) / Tumor inhibitory percent (%) D20 / Tumor volume (mm^3) (D0): NCI-H446 xenograft in nude mice; for Tumor inhibitory percent (%) D20: P = 0.000 vs control; for Tumor volume (mm^3) (D0): baseline at grouping (D0)
Description: Human […] NCI-H446 cells were subcutaneously inoculated into nude mice.

[5] = test system: human ovarian cancer SK-OV-3; conditions: 24 mg/kg, D0-4 IV
Description: Purpose: to evaluate and compare the inhibitory activity of the water soluble paclitaxel derivatives, paclitaxel and Abraxane® on subcutaneously xenografted tumor of human ovarian cancer SK-OV-3 in nude mice.
Human ovarian cancer SK-OV-3 cells were subcutaneously inoculated to nude mice. After the tumor volume reached 100-150 mm^3, the animals were randomly divided into groups (D0), and administered with the water soluble paclitaxel derivatives of the following formula, paclitaxel, and Abraxane®, respectively once per day for 5 days. The tumor volume was measured 2-3 times per week, the animals were weighed and the data were recorded until day 22 (D22) after grouping.
as §1
T/C (%)=(T−T0)/(C−C0)×100, wherein T and C represent the tumor volume at the end of the experiment, and T0 and C0 represent the tumor volume at the beginning of the experiment.

Row | SMILES | Sampling time/Dissociation percent (%) 2 min [1] [%] | Sampling time/Dissociation percent (%) 5 min [1] [%] | Sampling time/Dissociation percent (%) 10 min [1] [%] | Weight change (%) D6 ([2]; 13 mg/kg) [%] | T/C (%) D20 ([2]; 13 mg/kg) [%] | Tumor volume (mm^3) (D20) ([2]; 13 mg/kg) | Tumor inhibitory percent (%) D20 ([2]; 13 mg/kg) [%] | Tumor volume (mm^3) (D0) ([2]; 13 mg/kg) | Sampling time/Dissociation percent (%) 2 min [3] [%] | Sampling time/Dissociation percent (%) 5 min [3] [%] | Sampling time/Dissociation percent (%) 10 min [3] [%] | other results
1 | CO[C@H]1C(=O)[C@]2(C)[C@@H](OC)C[C@H]3OC[C@@]3(OC(C)=O)[C@H]2[C@H](OC(=O)c2ccccc2)[C@]2(O)C[C@H](OC(=O)[C@H](OC(=O)[C@@H](F)CCN(C)C)[C@@H](NC(=O)OC(C)(C)C)c3ccccc3)C(C)=C1C2(C)C.CS(=O)(=O)O [Compound C8, 2′-O-[4-N,N-dimethylamino-2(S)-fluorobutyryl]cabazitaxel methanesulfonate] | 49.4 | 88.4 | 100 | −14.4 | −66 | 32.1 ± 12.1 | 151 | 111.9 ± 2.0 | 85.6 | 94.5 | 100 | –
2 | CC(=O)OC12COC1CCC1(C)C3OC(CN(C)C)OC3C3=C(C)C(OC(=O)C(OC(=O)C(CCN(C)C(C)C)C(F)(F)F)C(NC(=O)OC(C)(C)C)c4ncccc4F)CC(O)(C(OC(=O)c4ccccc4)C12)C3(C)C.O=C(O)CCC(=O)O (mixture of isomers) [Compound C45, 2′-O-[4-N-methyl-N-isopropylamino-2(R,S)-2-trifluoromethylbutyryl]tesetaxel succinate] | – | – | – | – | – | – | – | – | – | – | – | Weight change (%) D5 ([4]; D5, nude mice): −11.4%; T/C (%) D20 [4]: −34%; Tumor volume (mm^3) (D20) [4]: 53.4 ± 12.4 mm^3; Tumor inhibitory percent (%) D20 [4]: 85%; Tumor volume (mm^3) (D0) [4]: 112.3 ± 3.1 mm^3
3 | CCN(CC)CCC(F)C(=O)OC(C(=O)OC1CC2(O)C(OC(=O)c3ccccc3)C3C(C)(CCC4OCC43OC(C)=O)C3OC(CN(C)C)OC3C(=C1C)C2(C)C)C(NC(=O)OC(C)(C)C)c1ncccc1F.Cl [Compound C44, 2′-O-[4-N,N-diethylamino-2(S)-fluorobutyryl]tesetaxel hydrochloride] | – | – | – | – | – | – | – | – | – | – | – | T/C (%) D20 [4]: −49%; Tumor volume (mm^3) (D20) [4]: 41.3 ± 10.9 mm^3; Tumor inhibitory percent (%) D20 [4]: 123%; Tumor volume (mm^3) (D0) [4]: 113.6 ± 2.8 mm^3
4 | CO[C@H]1C(=O)[C@]2(C)[C@@H](OC)C[C@H]3OC[C@@]3(OC(C)=O)[C@H]2[C@H](OC(=O)c2ccccc2)[C@]2(O)C[C@H](OC(=O)[C@H](OC(=O)[C@@H](CCN(C)C)C(F)F)[C@@H](NC(=O)OC(C)(C)C)c3ccccc3)C(C)=C1C2(C)C.Cc1ccc(S(=O)(=O)O)cc1 [Compound C36, 2′-O-[4-N,N-dimethylamino-2(R)-2-difluoromethylbutyryl]cabazitaxel p-toluene sulfonate] | – | – | – | – | −37 | – | 85 | – | – | – | – | –
5 | CCN(C)CC[C@@H](F)C(=O)O[C@@H](C(=O)O[C@H]1C[C@@]2(O)[C@@H](OC(=O)c3ccccc3)[C@@H]3[C@]4(OC(C)=O)CO[C@@H]4C[C@H](OC)[C@@]3(C)C(=O)[C@H](OC)C(=C1C)C2(C)C)[C@@H](NC(=O)OC(C)(C)C)c1ccccc1.O=C(O)/C=C\C(=O)O [Compound C32, 2′-O-[4-N-methyl-N-ethylamino-2(R)-fluorobutyryl]cabazitaxel maleate] | – | – | – | −14.7 | −56 | 35.8 ± 12.7 | 128 | 112.4 ± 3.0 | – | – | – | –
6 | CO[C@H]1C(=O)[C@]2(C)[C@@H](OC)C[C@H]3OC[C@@]3(OC(C)=O)[C@H]2[C@H](OC(=O)c2ccccc2)[C@]2(O)C[C@H](OC(=O)[C@H](OC(=O)[C@@H](CCN(C)C)C(F)(F)F)[C@@H](NC(=O)OC(C)(C)C)c3ccccc3)C(C)=C1C2(C)C.CS(=O)(=O)O [Compound C35, 2′-O-[4-N,N-dimethylamino-2(R)-2-trifluoromethylbutyryl]cabazitaxel methanesulfonate] | – | – | – | −15.8 | −46 | 42.3 ± 12.6 | 105 | 110.2 ± 4.6 | – | – | – | –
7 | CO[C@H]1C(=O)[C@]2(C)[C@@H](OC)C[C@H]3OC[C@@]3(OC(C)=O)[C@H]2[C@H](OC(=O)c2ccccc2)[C@]2(O)C[C@H](OC(=O)[C@H](O)[C@@H](NC(=O)OC(C)(C)C)c3ccccc3)C(C)=C1C2(C)C [cabazitaxel, reference compound] | – | – | – | – | – | – | – | – | – | – | – | Weight change (%) D6 ([2]; 7 mg/kg): −13.8%; T/C (%) D20 ([2]; 7 mg/kg): −27%; Tumor volume (mm^3) (D20) ([2]; 7 mg/kg): 79.9 ± 24.8 mm^3; Tumor inhibitory percent (%) D20 ([2]; 7 mg/kg): 127%; Tumor volume (mm^3) (D0) ([2]; 7 mg/kg): 111.7 ± 1.8 mm^3
8 | CO[C@H]1C(=O)[C@]2(C)[C@@H](OC)C[C@H]3OC[C@@]3(OC(C)=O)[C@H]2[C@H](OC(=O)c2ccccc2)[C@]2(O)C[C@H](OC(=O)[C@H](OC(=O)C(F)CCN(C)C)[C@@H](NC(=O)OC(C)(C)C)c3ccccc3)C(C)=C1C2(C)C.CS(=O)(=O)O (stereo partly drawn) [Compound C9, 2′-O-[4-N,N-dimethylamino-2(R,S)-fluorobutyryl]cabazitaxel methanesulfonate] | 49.3 | 88.6 | 100 | −14.4 | −66 | 32.5 ± 11.6 | 151 | 111.4 ± 2.3 | 81.2 | 96.7 | 100 | –
9 | CCN(CC)CC[C@@H](F)C(=O)O[C@@H](C(=O)O[C@H]1C[C@@]2(O)[C@@H](OC(=O)c3ccccc3)[C@@H]3[C@]4(OC(C)=O)CO[C@@H]4C[C@H](OC)[C@@]3(C)C(=O)[C@H](OC)C(=C1C)C2(C)C)[C@@H](NC(=O)OC(C)(C)C)c1ccccc1.CS(=O)(=O)O [Compound C33, 2′-O-[4-N,N-diethylamino-2(R)-fluorobutyryl]cabazitaxel methanesulfonate] | – | – | – | −15.1 | −50 | 38.6 ± 13.4 | 114 | 112.0 ± 2.4 | – | – | – | –
10 | CO[C@H]1C(=O)[C@]2(C)[C@@H](OC)C[C@H]3OC[C@@]3(OC(C)=O)[C@H]2[C@H](OC(=O)c2ccccc2)[C@]2(O)C[C@H](OC(=O)[C@H](OC(=O)[C@H](F)CCN(C)C(C)C)[C@@H](NC(=O)OC(C)(C)C)c3ccccc3)C(C)=C1C2(C)C.Cl [Compound C34, 2′-O-[4-N-methyl-N-isopropylamino-2(R)-fluorobutyryl]cabazitaxel hydrochloride] | – | – | – | – | −45 | 42.8 ± 11.9 | 101 | 111.7 ± 3.2 | – | – | – | –
11 | CC(=O)O[C@H]1C(=O)[C@@]2(C)[C@H]([C@H](OC(=O)c3ccccc3)[C@]3(O)C[C@H](OC(=O)[C@H](OC(=O)[C@H](F)CCN(C)C)[C@@H](NC(=O)c4ccccc4)c4ccccc4)C(C)=C1C3(C)C)[C@]1(OC(C)=O)CO[C@@H]1C[C@@H]2O.CS(=O)(=O)O [Compound C1, 2′-O-[4-N,N-dimethylamino-2(R)-fluorobutyryl]paclitaxel methanesulfonate] | 64.3 | 97.0 | 100 | – | – | – | – | – | 77.2 | 98.4 | 100 | Body weight change (%) D4 ([5]; D4, nude mice): −5.9%; T/C (%) D22 ([5]; D22, SK-OV-3 xenograft in nude mice): −63%; Tumor volume (mm^3) (D0) ([5]; baseline at grouping (D0), SK-OV-3 xenograft in nude mice): 133.6 ± 9.5 mm^3
12 | CO[C@H]1C(=O)[C@]2(C)[C@@H](OC)C[C@H]3OC[C@@]3(OC(C)=O)[C@H]2[C@H](OC(=O)c2ccccc2)[C@]2(O)C[C@H](OC(=O)[C@H](OC(=O)[C@H](F)CCN(C)C)[C@@H](NC(=O)OC(C)(C)C)c3ccccc3)C(C)=C1C2(C)C.CS(=O)(=O)O [Compound C7, 2′-O-[4-N,N-dimethylamino-2(R)-fluorobutyryl]cabazitaxel methanesulfonate] | 49.7 | 88.9 | 100 | −14.2 | −67 | 31.5 ± 11.8 | 154 | 111.5 ± 2.2 | 78.4 | 94.8 | 100 | –

From US9650390B2, “Water-soluble taxane derivatives and uses thereof” (priority 2014, dated 2017)
